Test results published in patent publication US8183364B2, “Substituted porphyrins” (Duke University, priority 2004, dated 2012).
Entries after “also recorded” stand apart in the source; their conditions may differ. Marks after values point to notes of the source that are not given here.

What was measured:
[1] = data from Batinic-Haberle et al 2002, cited from earlier work; for Rf (compound path/solvent path), metal-free porphyrin (in parenthesis): metal-free ligand of the named Mn porphyrin; for Rf (compound path/solvent path), Mn complex: silica gel TLC, KNO3-saturated H2O/H2O/acetonitrile = 1/1/8
[2] = Kinetic salt effect on O2.^− dismutation by cytochrome c assay; type: biochemical; details: 0.05 M phosphate buffer, pH 7.8, 0-0.4 M NaCl
Protocol: Kinetic salt effect. The dependence of the catalytic rate constant for the O2.^− dismutation upon ionic strength was determined by cytochrome c assay (McCord and Fridovich, J. Biol. Chem. 244:6049 (1969)) in 0.05 M phosphate buffer, pH 7.8 with NaCl ranging from 0 to 0.4 M. In doing this, the effect of ionic strength on the rate of the O2.^−/cytochrome c reaction was corrected for.
Kinetic salt effect. The effect of the ionic strength (μ) on the catalytic rate constant was assessed using eq which is based on Debye-Huckel relation (Hambright et al, J. Porphyrins Phthalocyanines 7:139-146 (2003)) for the effect of the ionic strength of the solution on the activity coefficient of an ion. log k=log kref+2AzAzBμ^1/2/(1+μ^1/2) The k is the rate constant at any given ionic strength, while kref is the rate constant at μ=0. The A is a collection of physical constants with a value of 0.509 and zA and zB are the charges of the reacting species. The equation predicts a linear plot of log k vs μ^1/2/(1+μ^1/2). Eq assumes a coefficient of 1.0 (βai) for μ^1/2 in the denominator, i.e., the distance of the closest approach, ai to be 3 A and β is a physical constant, […]. It is doubtful whether great significance can be attributed to the ai, thus to the product zAzB (Hambright et al, J. Porphyrins Phthalocyanines 7:139-146 (2003)), especially so in the light of the bulkiness, high charge and solvation shell of the metalloporphyrins. Accounting for the mono- and diprotonated phosphates as the major species at pH 7.8 (pKa=7.2), and the concentration of the NaCl, the ionic strength was calculated using equation μ=½ Σ mizi^2 where mi is the molality and zi the charge of the given ion.
The slopes of the plots are −6.48 (MnTE-2-PyP^5+), −7.02 (MnTMOE-2-PyP^5+), −7.38 (MnTDMOE-2-ImP^5+), and −4.15 (MnTnBu-2-PyP^5+). As expected (Hambright et al, J. Porphyrins Phthalocyanines 7:139-146 (2003)), when the reactants are ions of opposite charges, the higher the ionic strength of the solution the lower the rate constants, i.e. the slopes are negative. The slopes of the plots indicate clearly the impact of the local dielectric constant on the kcat. The kcat of the most lipophilic compound, MnTnBu-2-PyP^5+ is 40% less sensitive to the changes in ionic strength of the solution than is the kcat of its methoxyethyl analogue, MnTMOE-2-PyP^5+.

[3] = Oxidative degradation in the presence of ascorbic acid under aerobic conditions; type: physicochemical; details: pH 7.8 (0.05 M tris buffer)
Protocol: Under these conditions porphyrins underwent oxidative degradation. As previously observed (Batinic-Haberle et al, J. Chem. Soc., Dalton Trans., pgs. 2689-2696 (2002)), those porphyrins that are of more positive E1/2 are stabilized in +2 oxidation state and are less prone to oxidative damage. Accordingly, 27% and 24% of MnTE-2-PyP^5+ and MnTMOE-2-PyP^5+ undergo degradation within 2 hours, but only 2% of MnTM,MOE-2-ImP^5+ and MnTDMOE-2-ImP^5+ and 3% of MnTDE-2-ImP^5+.

[4] = tested on: SOD-deficient JI132 E. coli; experiment: Aerobic growth of SOD-deficient E. coli; type: cell-based
Protocol: (§1) Aerobic growth of E. coli. Bacterial strains of E. coli used were wild type AB1157 (F-thr-1 leu-1 proA2 his-4 argE3 thr-1 lacY1 galK2 rpsL supE44 ara-14 xyl-15 mtl-1 tsx-33) and SOD-deficient JI132 (same as AB1157 plus (sodA::mudPR13)25 (sodB-kan)1-Δ2. Culture media were prepared as follows. M9 medium: 6 g/L Na2HPO4, 3 g/L KH2PO4, 0.5 g/L NaCl, 1 g/L NH4Cl, 2 mM MgSO4, 0.1 mM CaCl2, adjusted to pH 7.4 with NaOH, and supplemented with 0.2% glucose, 3 mg/L each of D-panthotenic acid and thiamine. M9CA medium contained M9 medium plus 0.2% casamino acids. 5-amino acid (5AA) minimal medium contained M9 medium plus 0.5 mM each of threonine, leucine, histidine, proline and arginine (Faulkner et al, J. Biocl. Chem. 269:23471 (1994)).
(§2) AB 1157 and 31132 were precultured overnight aerobically in M9CA medium at 37° C. and were then diluted to 3×10^7 cells/mL into 5 mL M9CA medium. JI132 was precultured in the presence of 20 μg/mL chloramphenicol and 500 μg/mL kanamycin. When the cells are transferred from M9CA medium to 5AA minimal medium cultures were first centrifuged and washed twice with the 5AA medium before final dilution in it. The centrifugation was conducted at room temperature to avoid temperature shocks. Cultures without and with Mn porphyrins (0.1 to 30 μM) were grown aerobically in 5 mL volume in test tubes in a thermostated orbital shaker (45° angle, 200 rpm) at 37° C.). Rates of growth were followed turbidimetrically at 700 nm to minimize interference from the absorbance of test compounds.

[5] = pH 7.8, (22 ± 1) °C; data from Batinic-Haberle et al 2002 (MnTE-2-PyP: Inorg. Chem. 40:726 (2001)); cited from earlier work
[6] = cited from earlier work; for Metal-centered redox potential E1/2: Mn(III)/Mn(II), 0.1 M NaCl, 0.05 M phosphate buffer, pH 7.8, data from Batinic-Haberle et al 2002
[7] = previously observed (Batinic-Haberle et al 2002), compared with imidazolyl porphyrins; cited from earlier work
wild type AB1157 E. coli = experiment: Aerobic growth of wild type E. coli (toxicity); type: cell-based; details: for toxicity to E. coli at 100-fold lower concentration: 0.3 μM; for growth of wild type E. coli: 5AA minimal medium; for toxicity to wild type E. coli / concentration at which toxicity on the parental (wild type) strain is exerted / becomes observable: M9CA medium; for toxicity to wild type E. coli: 30 μM (up to 30 μM); for concentration at which toxicity on the parental (wild type) strain is exerted / becomes observable: range 0.1 to 30 μM
Protocol: as §1, §2

[8] = Thin-layer chromatography on silica gel (retention factor Rf, lipophilicity); type: physicochemical; details: Rf; vs methyl porphyrin
Protocol: Uv/vis spectra of porphyrin ligands and their Mn complexes were taken on a Shimadzu UV-2501-PC spectrophotometer at 25° C. Thin-layer chromatography of ligands and Mn complexes was done using silica gel plates with KNO3satH2O/H2O/acetonitrile=1/1/8.
Thin-layer chromatography. All new methoxyporphyrins are more lipophilic than MnTE-2-PyP^5+ and MnTDE-2-ImP^5+.

[9] = pH 7.8; cited from earlier work

Compound	Rf (compound path/solvent path), metal-free porphyrin (in parenthesis) [1]	Rf (compound path/solvent path), Mn complex [1]	aerobic growth of SOD-deficient E. coli ([4]; 5AA minimal medium, 25 μM)	log kcat for O2^− dismutation [5]	Metal-centered redox potential E1/2 [6]	stability towards oxidative degradation [7]	toxicity to E. coli at 100-fold lower concentration (wild type AB1157 E. coli)	growth of wild type E. coli (wild type AB1157 E. coli; 3 μM)	growth of wild type E. coli (wild type AB1157 E. coli; up to 25 μM)	concentration at which toxicity on the parental (wild type) strain is exerted / becomes observable (wild type AB1157 E. coli)	also measured
CC[n+]1ccccc1-c1c2nc(c(-c3cccc[n+]3CC)c3ccc([n-]3)c(-c3cccc[n+]3CC)c3nc(c(-c4cccc[n+]4CC)c4ccc1[n-]4)C=C3)C=C2.[Mn+3] [MnTE-2-PyP^5+]	0.21	0.13	most effective	7.73^e	+228 mV vs NHE	–	–	–	–	–	slope of log kcat vs μ^1/2/(1+μ^1/2) [2]: −6.48; degradation within 2 hours [3]: 27%; protection of SOD-deficient E. coli ([4]; M9CA medium, 1 μM): low protection; protection of SOD-deficient E. coli ([4]; M9CA medium, 30 μM): either much higher or near full protection; facilitation of aerobic growth of SOD-deficient E. coli, dependence on concentration ([4]; M9CA medium, 1-30 μM): concentration-dependent manner
CCCCCC[n+]1ccccc1-c1c2nc(c(-c3cccc[n+]3CCCCCC)c3ccc([n-]3)c(-c3cccc[n+]3CCCCCC)c3nc(c(-c4cccc[n+]4CCCCCC)c4ccc1[n-]4)C=C3)C=C2.[Mn+3] [MnTnHex-2-PyP^5+]	0.63	0.57	failed to do so	7.48	+314 mV vs NHE	same level of stability	mostly eliminated	slowed the growth	toxic	3000 nM	toxicity to wild type E. coli (wild type AB1157 E. coli; listed as n-hexyl): prevented wild type E. coli to grow; also recorded: prevent wild type E. coli from growing; aerobic growth of SOD-deficient E. coli ([4]; 5AA minimal medium, 3 μM): most effective; protection of SOD-deficient E. coli at 0.3 μM compared with 10 μM methyl, ethyl (and MnTDMOE-2-ImP) porphyrins ([4]; M9CA medium, listed as n-hexyl): equally protective; also recorded: the same level of protection; aerobic growth of SOD-deficient E. coli ([4]; M9CA medium, 1 and 3 μM): most effective; aerobic growth of SOD-deficient E. coli ([4]; M9CA medium, 10 and 30 μM): progressively less effective
CCCCCCCC[n+]1ccccc1-c1c2nc(c(-c3cccc[n+]3CCCCCCCC)c3ccc([n-]3)c(-c3cccc[n+]3CCCCCCCC)c3nc(c(-c4cccc[n+]4CCCCCCCC)c4ccc1[n-]4)C=C3)C=C2.[Mn+3] [MnTnOct-2-PyP^5+]	0.86	0.08	–	7.71	+367 mV vs NHE	same level of stability	mostly eliminated	completely inhibited growth	toxic	300 nM	lipophilicity higher than methyl porphyrin [8]: ~10 fold; toxicity to wild type E. coli (wild type AB1157 E. coli; listed as n-octyl): prevented wild type E. coli to grow; also recorded: prevent wild type E. coli from growing; toxicity of metal-free vs Mn(III) complex (wild type AB1157 E. coli; separate experiment): equally toxic; protection of SOD-deficient E. coli at 0.3 μM compared with 10 μM methyl, ethyl (and MnTDMOE-2-ImP) porphyrins ([4]; M9CA medium, listed as n-octyl): equally protective; also recorded: the same level of protection; concentration at which the compound facilitates growth of SOD-deficient strain (utility) ([4]; M9CA medium, range 0.1 to 30 μM): ≤ 0.3 µM; protection of SOD-deficient E. coli higher than methyl porphyrin ([4]; vs methyl porphyrin): 30 fold
Cu,Zn-SOD: superoxide dismutase enzyme	–	–	–	–	–	–	–	–	–	–	E1/2 ([6]; literature value for the enzyme): ~+300 mV vs NHE; equal rate constants of reduction and oxidation of O2.^− [9]: 2e+09 M⁻¹ s⁻¹
